These results are taken from PubChem BioAssay (NCI).

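Compound exposure: 48 hours, 5 concentrations, 96-well plates. TGI denotes the concentration required for complete inhibition of growth.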 Where a SMILES comes first, the peptide text is derived from it. [ ]: non-standard residue; d: D form. The star is where a group is joined. Bn2Val = CC(C)[C@@H](C(=O)*)N(Cc1ccccc1)Cc1ccccc1; NH(4-Cl-benzyl) = Clc1ccc(CN*)cc1; NMeV = CN[C@H](C(=O)O)C(C)C; dNMeA = CN[C@H](C)C(=O)O

Test systems include MOLT-4 leukemia; BT-549 breast; TK-10 renal; PC-3 prostate; 786-0 renal; SK-MEL-2 melanoma; HS 578T breast; CCRF-CEM leukemia; UACC-62 melanoma; NCI-H23 lung.
Common to all, as to assay: inhibition of tumour cell growth, NCI panel, 48 h

Turning to `CN1CC2=C(NC(=S)NC2c2ccccc2)/C(=C/c2ccccc2)C1` (stereo not given), the TGI in the experiment with MOLT-4 leukemia was 44.7 µM; with BT-549 breast, greater than 100 µM; in the experiment with TK-10 renal it was greater than 100 µM; with PC-3 prostate, greater than 100 µM; in the experiment on 786-0 renal, greater than 100 µM; with SK-MEL-2 melanoma, greater than 100 µM. In addition, the TGI in the experiment on HS 578T breast, in the experiment on CCRF-CEM leukemia, with UACC-62 melanoma and in the experiment with NCI-H23 lung was greater than 100 µM throughout.
Take `CN(Cc1cnc2nc(N)nc(N)c2n1)c1ccc(C(=O)NC(CO)CCCO)cc1` (stereo not given): the TGI with MOLT-4 leukemia, in the experiment on BT-549 breast, in the experiment with TK-10 renal, in the experiment with PC-3 prostate, in the experiment on 786-0 renal and in the experiment on SK-MEL-2 melanoma was greater than 100 µM each time. Also, the TGI in the experiment with HS 578T breast, with CCRF-CEM leukemia, with UACC-62 melanoma and in the experiment on NCI-H23 lung was greater than 100 µM in each case.
Turning to `Cc1nn(-c2ccccc2)c(C)c1/C=N/N=C1\S/C(=C\c2ccc(Cl)cc2)C(=O)N1c1ccccc1`, the TGI was 27.2 µM with MOLT-4 leukemia; greater than 100 µM in the experiment with BT-549 breast; greater than 100 µM with TK-10 renal; greater than 100 µM in the experiment with PC-3 prostate; 7.89 µM in the experiment with 786-0 renal; greater than 100 µM in the experiment on SK-MEL-2 melanoma. Also, the TGI with HS 578T breast is 60.9 µM; in the experiment with CCRF-CEM leukemia, greater than 100 µM; in the experiment on UACC-62 melanoma, greater than 100 µM; in the experiment on NCI-H23 lung it was greater than 100 µM.
In the case of `CC(C)C(C/C=C1\CC(CO)(COC(=O)C2CCCCC2)OC1=O)C(C)C` (stereo not given), the TGI in the experiment with MOLT-4 leukemia is 39.8 µM; with BT-549 breast, 47.2 µM; in the experiment on TK-10 renal it was 41.8 µM; in the experiment on PC-3 prostate it was 37.2 µM; with 786-0 renal it was 28.9 µM; with SK-MEL-2 melanoma, greater than 100 µM. Also, the TGI in the experiment with HS 578T breast was 31.8 µM; in the experiment with CCRF-CEM leukemia, 43 µM; in the experiment with UACC-62 melanoma, greater than 100 µM; in the experiment with NCI-H23 lung, 40.2 µM.
For the compound `COc1ccc(C(=O)CC(c2ccccc2)[C@H]2C(c3ccc(OC)cc3)=Nc3c(nc(SC)n(C)c3=O)NC2c2ccccc2)cc1` (stereo not given in full), the TGI in the experiment with MOLT-4 leukemia, in the experiment with BT-549 breast, in the experiment with TK-10 renal, with PC-3 prostate, with 786-0 renal and with SK-MEL-2 melanoma was greater than 100 µM in each case. Besides, the TGI in the experiment on HS 578T breast, in the experiment with CCRF-CEM leukemia, in the experiment with UACC-62 melanoma and in the experiment with NCI-H23 lung was greater than 100 µM each time.
As to `COc1ccc(C(SC2C(O)C(CO)OC2n2ccc(=O)[nH]c2=O)(c2ccccc2)c2ccc(OC)cc2)cc1` (stereo not given), the TGI is greater than 100 µM with MOLT-4 leukemia; 33.6 µM in the experiment with BT-549 breast; 57 µM in the experiment on TK-10 renal; 33 µM with PC-3 prostate; 32 µM with 786-0 renal; 31.4 µM in the experiment with SK-MEL-2 melanoma. The TGI in the experiment with HS 578T breast is 53.6 µM; with CCRF-CEM leukemia, greater than 100 µM; in the experiment on UACC-62 melanoma it was 33.3 µM; with NCI-H23 lung it was 39.6 µM.
In the case of `CCOP(=O)(OCC)/C(=C/c1cccs1)CC(C)=O`, the TGI with MOLT-4 leukemia, with BT-549 breast, in the experiment with TK-10 renal, in the experiment with PC-3 prostate, in the experiment with 786-0 renal and in the experiment with SK-MEL-2 melanoma was greater than 100 µM each time. In addition, the TGI with HS 578T breast, in the experiment with CCRF-CEM leukemia, in the experiment on UACC-62 melanoma and with NCI-H23 lung was greater than 100 µM each time.
For `CC(C)(C)OC(=O)NCC(CNC(=O)OC(C)(C)C)c1nc(C(N)=O)cs1`, the TGI with MOLT-4 leukemia, in the experiment on BT-549 breast, with TK-10 renal, with PC-3 prostate, in the experiment with 786-0 renal and in the experiment on SK-MEL-2 melanoma was greater than 100 µM in each case. For the same compound, the TGI in the experiment on HS 578T breast, in the experiment with CCRF-CEM leukemia, in the experiment on UACC-62 melanoma and in the experiment with NCI-H23 lung was greater than 100 µM each time.
As for `CC(C)[C@H](NC(=O)[C@H](C(C)C)N(Cc1ccccc1)Cc1ccccc1)C(=O)N(C)[C@H](C(=O)N1CCC[C@H]1C(=O)N(C)[C@H](C)C(=O)NCc1ccc(Cl)cc1)C(C)C` (Bn2Val-V[NMeV]P[dNMeA]-{NH(4-Cl-benzyl)}), the TGI with MOLT-4 leukemia is greater than 100 µM; in the experiment with BT-549 breast, 13.5 µM; with TK-10 renal, greater than 100 µM; in the experiment with PC-3 prostate, greater than 100 µM; with 786-0 renal, 28.7 µM; with SK-MEL-2 melanoma it was 3.62 µM. Moreover, the TGI with HS 578T breast is 4.04 µM; in the experiment on CCRF-CEM leukemia it was 7.43 µM; with UACC-62 melanoma, 13.8 µM; in the experiment on NCI-H23 lung, 28.6 µM.
